# Measured values from US20100298141A1, “SUBSTITUTED PYRIDINE N-OXIDE HERBICIDES” (E. I. DU PONT DE NEMOURS AND COMPANY, priority 2007, published 2010).
# Tests used:
# barnyardgrass [1] = assay: Test A pre-/postemergence greenhouse test; format: in vivo, Echinochloa crus-galli; conditions: for Barnyardgrass plant response rating: 0 to 100 scale; for Plant response rating, Barnyardgrass: 0 to 100 scale where 0 is no effect and 100 is complete control
# Procedure, shortened: (§1)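 Each test compound, dissolved in a non-phytotoxic solvent mixture with surfactant, was sprayed directly onto seeded soil (loam/sand blend) and, at the same moment, onto seedlings carrying one to two leaves. Around ten greenhouse days later, plants were rated visually for injury relative to untreated controls.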
# crabgrass = assay: Test A pre-/postemergence greenhouse test; format: in vivo, Digitaria sanguinalis; conditions: for Crabgrass, Large plant response rating: 0 to 100 scale; for Plant response rating, Crabgrass, Large: 0 to 100 scale where 0 is no effect and 100 is complete control
# Procedure, shortened: as §1
# giant foxtail = assay: Test A pre-/postemergence greenhouse test; format: in vivo, Setaria faberi; conditions: for Foxtail, Giant plant response rating: 0 to 100 scale; for Plant response rating, Foxtail, Giant: 0 to 100 scale where 0 is no effect and 100 is complete control
# Procedure, shortened: as §1
# morningglory = assay: Test A pre-/postemergence greenhouse test; format: in vivo, Ipomoea spp.; conditions: for Morningglory plant response rating: 0 to 100 scale; for Plant response rating, Morningglory: 0 to 100 scale where 0 is no effect and 100 is complete control
# Procedure, shortened: as §1
# redroot pigweed = assay: Test A pre-/postemergence greenhouse test; format: in vivo, Amaranthus retroflexus; conditions: for Pigweed plant response rating: 0 to 100 scale; for Plant response rating, Pigweed: 0 to 100 scale where 0 is no effect and 100 is complete control
# Procedure, shortened: as §1
# velvetleaf = assay: Test A pre-/postemergence greenhouse test; format: in vivo, Abutilon theophrasti; conditions: for Velvetleaf plant response rating: 0 to 100 scale; for Plant response rating, Velvetleaf: 0 to 100 scale where 0 is no effect and 100 is complete control
# Procedure, shortened: as §1
# wheat = assay: Test A pre-/postemergence greenhouse test; format: in vivo, Triticum aestivum; conditions: for Wheat plant response rating: 0 to 100 scale; for Plant response rating, Wheat: 0 to 100 scale where 0 is no effect and 100 is complete control
# Procedure, shortened: as §1
# corn = assay: Test A pre-/postemergence greenhouse test; format: in vivo, Zea mays; conditions: for Corn plant response rating: 0 to 100 scale; for Plant response rating, Corn: 0 to 100 scale where 0 is no effect and 100 is complete control
# Procedure, shortened: as §1
# rice = assay: Test C flooded paddy test; format: in vivo, Oryza sativa; conditions: Flood
# Procedure, shortened: (§2)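 Pots were flooded to 3 cm above the soil surface at treatment, compound applied directly to the paddy water, and that depth held throughout. Plants were kept in a greenhouse for 13 to 15 days, then visually rated against untreated controls.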
# umbrella sedge = assay: Test C flooded paddy test; format: in vivo, Cyperus difformis; conditions: Flood
# Procedure, shortened: as §2
# duck salad = assay: Test C flooded paddy test; format: in vivo, Heteranthera limosa; conditions: Flood
# Procedure, shortened: as §2
# barnyardgrass [2] = assay: Test C flooded paddy test; format: in vivo, Echinochloa crus-galli; conditions: Flood
# Procedure, shortened: as §2
# [3] = Postemergence, 125 g ai/ha, 0 is no effect, 100 is complete control
# [4] = Postemergence, 500 g ai/ha, 0 is no effect, 100 is complete control
# [5] = Preemergence, 125 g ai/ha, 0 no effect, 100 complete control
# [6] = 31 g ai/ha, scale 0 to 100 (0 no effect, 100 complete control)
# [7] = 62 g ai/ha, scale 0 to 100, 0 no effect, 100 complete control, 13 to 15 days
# [8] = 125 g ai/ha, scale 0 to 100, 0 no effect, 100 complete control, 13 to 15 days
# [9] = 250 g ai/ha, scale 0 to 100 (0 no effect, 100 complete control)
# [10] = 250 g ai/ha, scale 0 to 100, 0 no effect, 100 complete control, 13 to 15 days
# [11] = Preemergence, 500 g ai/ha, 0 no effect, 100 complete control
# [12] = 62 g ai/ha, scale 0 to 100 (0 no effect, 100 complete control)
smiles,measurement,setting,value
Cn1nc(C(F)(F)F)c(C(Cl)S(=O)(=O)c2ccc(Cl)c[n+]2[O-])c1Cl (racemic) [Compound 21],Barnyardgrass plant response rating,barnyardgrass [1]; [3],0
same,Barnyardgrass plant response rating,barnyardgrass [1]; [4],30
same,Barnyardgrass plant response rating,barnyardgrass [1]; [5],60
same,"Plant response rating, Barnyardgrass","barnyardgrass [1]; Preemergence, 500 g ai/ha",90
same,"Crabgrass, Large plant response rating",crabgrass; [3],20
same,"Crabgrass, Large plant response rating",crabgrass; [4],40
same,"Crabgrass, Large plant response rating",crabgrass; [5],60
same,"Plant response rating, Crabgrass, Large","crabgrass; Preemergence, 500 g ai/ha",80
same,"Foxtail, Giant plant response rating",giant foxtail; [3],0
same,"Foxtail, Giant plant response rating",giant foxtail; [4],40
same,"Foxtail, Giant plant response rating",giant foxtail; [5],80
same,"Plant response rating, Foxtail, Giant","giant foxtail; Preemergence, 500 g ai/ha",90
same,Morningglory plant response rating,morningglory; [3],0
same,Morningglory plant response rating,morningglory; [4],0
same,"Plant response rating, Morningglory","morningglory; Preemergence, 500 g ai/ha",0
same,Pigweed plant response rating,redroot pigweed; [3],0
same,Pigweed plant response rating,redroot pigweed; [4],0
same,Pigweed plant response rating,redroot pigweed; [5],40
same,Velvetleaf plant response rating,velvetleaf; [3],0
same,Velvetleaf plant response rating,velvetleaf; [4],0
same,Velvetleaf plant response rating,velvetleaf; [5],0
same,"Plant response rating, Velvetleaf","velvetleaf; Preemergence, 500 g ai/ha",0
same,Wheat plant response rating,wheat; [3],0
same,Wheat plant response rating,wheat; [4],0
same,Wheat plant response rating,wheat; [5],0
same,"Plant response rating, Wheat","wheat; Preemergence, 500 g ai/ha",0
same,Corn plant response rating,corn; [3],0
same,Corn plant response rating,corn; [4],0
same,Corn plant response rating,corn; [5],0
same,"Plant response rating, Corn","corn; Preemergence, 500 g ai/ha",0
same,"Plant response rating, Rice",rice; [6],0
same,"Plant response rating, Rice",rice; [7],0
same,"Plant response rating, Rice",rice; [8],0
same,"Plant response rating, Rice",rice; [9],0
same,"Plant response rating, Sedge, Umbrella",umbrella sedge; [6],0
same,"Plant response rating, Sedge, Umbrella",umbrella sedge; [7],0
same,"Plant response rating, Sedge, Umbrella",umbrella sedge; [8],40
same,"Plant response rating, Sedge, Umbrella",umbrella sedge; [10],90
same,"Plant response rating, Ducksalad",duck salad; [6],0
same,"Plant response rating, Ducksalad",duck salad; [7],0
same,"Plant response rating, Ducksalad",duck salad; [8],0
same,"Plant response rating, Ducksalad",duck salad; [9],90
same,"Plant response rating, Barnyardgrass",barnyardgrass [2]; [6],0
same,"Plant response rating, Barnyardgrass",barnyardgrass [2]; [7],0
same,"Plant response rating, Barnyardgrass",barnyardgrass [2]; [8],0
same,"Plant response rating, Barnyardgrass",barnyardgrass [2]; [9],20
Cc1ccc[n+]([O-])c1S(=O)(=O)Cc1c(C(F)(F)F)nn(C)c1OC(F)F [Compound 113],"Plant response rating, Barnyardgrass","barnyardgrass [1]; Postemergence, 125 g ai/ha",70
same,Barnyardgrass plant response rating,barnyardgrass [1]; [4],80
same,Barnyardgrass plant response rating,barnyardgrass [1]; [5],70
same,Barnyardgrass plant response rating,barnyardgrass [1]; [11],100
same,"Plant response rating, Crabgrass, Large","crabgrass; Postemergence, 125 g ai/ha",60
same,"Crabgrass, Large plant response rating",crabgrass; [4],80
same,"Crabgrass, Large plant response rating",crabgrass; [5],80
same,"Crabgrass, Large plant response rating",crabgrass; [11],90
same,"Plant response rating, Foxtail, Giant","giant foxtail; Postemergence, 125 g ai/ha",60
same,"Foxtail, Giant plant response rating",giant foxtail; [4],80
same,"Foxtail, Giant plant response rating",giant foxtail; [5],80
same,"Foxtail, Giant plant response rating",giant foxtail; [11],90
same,"Plant response rating, Morningglory","morningglory; Postemergence, 125 g ai/ha",30
same,Morningglory plant response rating,morningglory; [4],60
same,Morningglory plant response rating,morningglory; [11],80
same,"Plant response rating, Pigweed","redroot pigweed; Postemergence, 125 g ai/ha",10
same,Pigweed plant response rating,redroot pigweed; [4],50
same,Pigweed plant response rating,redroot pigweed; [5],10
same,Pigweed plant response rating,redroot pigweed; [11],100
same,"Plant response rating, Velvetleaf","velvetleaf; Postemergence, 125 g ai/ha",40
same,Velvetleaf plant response rating,velvetleaf; [4],50
same,Velvetleaf plant response rating,velvetleaf; [5],0
same,Velvetleaf plant response rating,velvetleaf; [11],40
same,"Plant response rating, Wheat","wheat; Postemergence, 125 g ai/ha",40
same,Wheat plant response rating,wheat; [4],60
same,Wheat plant response rating,wheat; [5],0
same,Wheat plant response rating,wheat; [11],60
same,"Plant response rating, Corn","corn; Postemergence, 125 g ai/ha",0
same,Corn plant response rating,corn; [4],60
same,Corn plant response rating,corn; [5],0
same,Corn plant response rating,corn; [11],80
same,"Plant response rating, Rice",rice; [6],0
same,"Plant response rating, Rice",rice; [12],0
same,"Plant response rating, Rice",rice; [8],0
same,"Plant response rating, Rice",rice; [10],0
same,"Plant response rating, Sedge, Umbrella",umbrella sedge; [6],0
same,"Plant response rating, Sedge, Umbrella",umbrella sedge; [12],0
same,"Plant response rating, Sedge, Umbrella",umbrella sedge; [8],0
same,"Plant response rating, Sedge, Umbrella",umbrella sedge; [10],0
same,"Plant response rating, Ducksalad",duck salad; [6],0
same,"Plant response rating, Ducksalad",duck salad; [12],0
same,"Plant response rating, Ducksalad",duck salad; [8],0
same,"Plant response rating, Ducksalad",duck salad; [10],0
same,"Plant response rating, Barnyardgrass",barnyardgrass [2]; [6],0
same,"Plant response rating, Barnyardgrass",barnyardgrass [2]; [12],0
same,"Plant response rating, Barnyardgrass",barnyardgrass [2]; [8],0
same,"Plant response rating, Barnyardgrass",barnyardgrass [2]; [10],0
Cn1nc(C(F)(F)F)c(C[S+]([O-])c2c(F)ccc[n+]2[O-])c1Cl (stereo not shown) [Compound 52],"Plant response rating, Barnyardgrass","barnyardgrass [1]; Postemergence, 125 g ai/ha",40
same,Barnyardgrass plant response rating,barnyardgrass [1]; [4],70
same,Barnyardgrass plant response rating,barnyardgrass [1]; [5],10
same,"Plant response rating, Barnyardgrass","barnyardgrass [1]; Preemergence, 500 g ai/ha",80
same,"Plant response rating, Crabgrass, Large","crabgrass; Postemergence, 125 g ai/ha",30
same,"Crabgrass, Large plant response rating",crabgrass; [4],40
same,"Crabgrass, Large plant response rating",crabgrass; [5],0
same,"Plant response rating, Crabgrass, Large","crabgrass; Preemergence, 500 g ai/ha",40
same,"Plant response rating, Foxtail, Giant","giant foxtail; Postemergence, 125 g ai/ha",40
same,"Foxtail, Giant plant response rating",giant foxtail; [4],60
same,"Foxtail, Giant plant response rating",giant foxtail; [5],30
same,"Plant response rating, Foxtail, Giant","giant foxtail; Preemergence, 500 g ai/ha",90
same,"Plant response rating, Morningglory","morningglory; Postemergence, 125 g ai/ha",0
same,Morningglory plant response rating,morningglory; [4],20
same,Morningglory plant response rating,morningglory; [5],0
same,"Plant response rating, Morningglory","morningglory; Preemergence, 500 g ai/ha",40
same,"Plant response rating, Pigweed","redroot pigweed; Postemergence, 125 g ai/ha",40
same,Pigweed plant response rating,redroot pigweed; [4],70
same,"Plant response rating, Pigweed","redroot pigweed; Preemergence, 500 g ai/ha",100
same,"Plant response rating, Velvetleaf","velvetleaf; Postemergence, 125 g ai/ha",50
same,Velvetleaf plant response rating,velvetleaf; [4],60
same,Velvetleaf plant response rating,velvetleaf; [5],0
same,"Plant response rating, Velvetleaf","velvetleaf; Preemergence, 500 g ai/ha",0
same,"Plant response rating, Wheat","wheat; Postemergence, 125 g ai/ha",0
same,Wheat plant response rating,wheat; [4],50
same,Wheat plant response rating,wheat; [5],0
same,"Plant response rating, Wheat","wheat; Preemergence, 500 g ai/ha",0
same,"Plant response rating, Corn","corn; Postemergence, 125 g ai/ha",0
same,Corn plant response rating,corn; [4],30
same,Corn plant response rating,corn; [5],0
same,"Plant response rating, Corn","corn; Preemergence, 500 g ai/ha",0
same,"Plant response rating, Rice",rice; [6],0
same,"Plant response rating, Rice",rice; [7],0
same,"Plant response rating, Rice",rice; [8],0
same,"Plant response rating, Rice",rice; [10],0
same,"Plant response rating, Sedge, Umbrella",umbrella sedge; [6],0
same,"Plant response rating, Sedge, Umbrella",umbrella sedge; [8],40
same,"Plant response rating, Sedge, Umbrella",umbrella sedge; [10],85
same,"Plant response rating, Ducksalad",duck salad; [6],0
same,"Plant response rating, Ducksalad",duck salad; [7],0
same,"Plant response rating, Ducksalad",duck salad; [8],40
same,"Plant response rating, Ducksalad",duck salad; [10],60
same,"Plant response rating, Barnyardgrass",barnyardgrass [2]; [6],0
same,"Plant response rating, Barnyardgrass",barnyardgrass [2]; [7],0
same,"Plant response rating, Barnyardgrass",barnyardgrass [2]; [8],0
same,"Plant response rating, Barnyardgrass",barnyardgrass [2]; [10],0
